# Where two headings read alike, the source gives them in different places.
# What was measured:
# Format in all cases: cell-based
# STAT1 = STAT1 assay (selectivity counter-screen)
# STAT3 = experiment: HCS STAT3 assay
# Cal33 cells = experiment: Cal33 growth inhibition; settings: for GI50: Table 5, * average of 2 experiments
# [1] = Table 4, read-out: STAT3 IC50 (converted)
# [2] = Table 5, * average of 2 experiments
# [3] = Table 5, * average of 2 experiments, read-out: STAT3 IC50 (converted)
# [4] = Homo sapiens, CAL-33, Table 2, read-out: Cal33 (IC50)
# [5] = Table 2, read-out: STAT3 (IC50)
# [6] = Table 2, read-out: Cal33 (IC50)
# [7] = Homo sapiens, CAL-33, Table 1, read-out: Growth Inhibition Cal33 (mean IC50)
# [8] = Table 1, read-out: STAT3 (mean IC50)
# [9] = FIG. 3, read-out: STAT3 potency (IC50)
SMILES,IC50 (STAT3; [5]),IC50 (Cal33 cells; [6]),other results
c1ccc(C2=Nn3c(nnc3-c3cc(-c4ccccc4)n[nH]3)SC2)cc1 [7b],,,IC50 (STAT1; Table 4): > 50 µM; IC50 (STAT3; [1]): 27 µM
CCC(C)C1Sc2nnc(-c3cc(-c4ccccc4)n[nH]3)n2N=C1c1ccc(OC)cc1 (stereo not shown) [Cmpd 28],,,GI50 (Cal33 cells): 500 nM; IC50 (STAT1; [2]): > 50 µM
COc1ccc(C2=Nn3c(nnc3-c3[nH]nc4c3CCC4)SC2C)cc1 (stereo not shown) [Cmpd 20],,,GI50 (Cal33 cells): 200 nM; IC50 (STAT1; [2]): > 50 µM; IC50 (STAT3; [3]): 9.1 µM
CC1Sc2nnc(-c3cc(-c4ccccc4)n[nH]3)n2N=C1c1ccccc1 (stereo not shown) [Cmpd 21],,,GI50 (Cal33 cells): 34100 ± 8700 nM; IC50 (STAT1; [2]): 15 µM; IC50 (STAT3; [3]): 3.4 µM
C1CCC(C2=Nn3c(nnc3-c3[nH]nc4c3CCC4)SC2)CC1 [13a],,,IC50 (STAT1; Table 4): > 50 µM; IC50 (STAT3; [1]): > 30 µM
CC1=Nn2c(nnc2-c2[nH]nc3c2CCC3)SC1 [12a],,,IC50 (STAT1; Table 4): > 50 µM; IC50 (STAT3; [1]): > 50 µM
COc1ccc(C2=Nn3c(-c4cc(-c5ccccc5)n[nH]4)nnc3[S+]([O-])C2C)cc1 (stereo not shown) [compound 10534],26.2 µM,,IC50 (Cal33 cells; [4]): 50 µM
c1ccc(C2=Nn3c(nnc3-c3[nH]nc4c3CCC4)SC2)cc1 [7a],,,IC50 (STAT1; Table 4): > 50 µM; IC50 (STAT3; [1]): 21.2 ± 23.5 µM
COc1ccc(C2=Nn3c(nnc3-c3cc(-c4cccc(Cl)c4)n[nH]3)SC2C)cc1 (stereo not shown) [compound 10539],8.7 µM,12.7 µM,
COc1ccc(C2=Nn3c(nnc3-c3ccccc3)SC2C)cc1 (stereo not shown) [UPCDC10352],27.6 µM,,IC50 (Cal33 cells; [7]): 0.21 µM; IC50 (Cal33 cells; [4]): 0.21 µM; IC50 (STAT3; [8]): 27.6 µM
Clc1ccc(C2=Nn3c(nnc3-c3[nH]nc4c3CCCC4)SC2)cc1 [UPCDC10084],,,IC50 (Cal33 cells; [7]): 0.6 µM; IC50 (STAT3; [8]): 21.3 µM
Cc1ccc(C2=Nn3c(nnc3-c3[nH]nc4c3CCC4)SC2C)cc1 (stereo not shown) [compound 10472],41.1 µM,0.18 µM,
COc1ccc(C2=Nn3c(nnc3-c3cc(-c4ccccc4)n[nH]3)SC2CC(=O)N(C)C)cc1 (stereo not shown) [compound 10425],9.9 µM,29.3 µM,IC50 (STAT3; [9]): < 10 µM
COc1ccc(C2=Nn3c(nnc3-c3[nH]nc4c3CCC4)SC2CCN)cc1 (stereo not shown) [compound 10383],31.2 µM,2.5 µM,
CC(=O)n1nc(-c2nnc3n2N=C(c2ccc(Cl)c(Cl)c2)C(C)S3)c2c1CCC2 (stereo not shown) [compound 10458],22.7 µM,4.5 µM,
CC1Sc2nnc(-c3[nH]nc4c3CCCC4)n2N=C1c1ccccc1 (racemic) [compound 10175],22.4 µM,40.2 µM,
COc1ccc(C2=Nn3c(nnc3-c3[nH]nc4c3CN(Cc3ccccc3)C4)SC2C)cc1 (stereo not shown) [compound 10512],27 µM,4.6 µM,
Clc1cccc(C2=Nn3c(nnc3-c3[nH]nc4c3CCC4)SC2)c1 [6a],,,IC50 (STAT1; Table 4): > 50 µM
CC1Sc2nnc(-c3cc(-c4ccccc4)n(C)n3)n2N=C1c1ccc(Cl)c(Cl)c1 (stereo not shown) [compound 10543],4.8 µM,35 µM,
c1cc(C2=Nn3c(nnc3-c3[nH]nc4c3CCC4)SC2)ccn1 [9a],,,IC50 (STAT1; Table 4): > 50 µM; IC50 (STAT3; [1]): > 50 µM
CC1Sc2nnc(-c3[nH]nc4c3CCC4)n2N=C1c1ccc(Br)cc1 (stereo not shown) [compound 10476],18.6 µM,0.79 µM,
CC1Sc2nnc(-c3[nH]nc4c3CCC4)n2N=C1c1ccc(C(F)(F)F)cc1 (stereo not shown) [compound 10470],24.4 µM,1.4 µM,

SMILES,IC50 (STAT3; [5]),IC50 (Cal33 cells; [6]),other results
c1ccc(C2=Nn3c(nnc3-c3[nH]nc4c3CCC4)SC2c2ccccc2)cc1 (racemic) [compound 10298],26.5 µM,1.1 µM,
CC(C)CC1Sc2nnc(-c3[nH]nc4c3CCC4)n2N=C1c1ccc(Cl)c(Cl)c1 (racemic) [compound 10304],27.1 µM,3.5 µM,
O=C(CC1Sc2nnc(-c3cc(-c4ccc(Cl)cc4)n[nH]3)n2N=C1c1ccccc1)N1CCCC1 (stereo not shown) [compound 10411],11.1 µM,21.6 µM,
COc1ccc(C2=Nn3c(nnc3-c3[nH]nc4c3CCC4)SC2Cc2ccccc2)cc1 (stereo not shown) [compound 10320],19.5 µM,0.83 µM,
COc1ccc(C2=Nn3c(nnc3-c3cc(-c4ccccc4)n[nH]3)SC2C)cc1 (stereo not shown) [compound 10511],7.6 µM,28 µM,
Clc1ccc(C2=Nn3c(nnc3-c3cc(-c4ccccc4)n[nH]3)SC2)s1 [10b],,,IC50 (STAT1; Table 4): > 50 µM; IC50 (STAT3; [1]): > 50 µM
CC1Sc2nnc(-c3[nH]nc4c3CCC4)n2N=C1c1ccc(F)cc1 (racemic) [compound 10282],27.7 µM,31.3 µM,
COCCC1Sc2nnc(-c3cc(-c4ccc(Cl)cc4)n[nH]3)n2N=C1c1ccc(OC)cc1 (stereo not shown) [compound 10373],33.2 µM,4.8 µM,
COc1ccc(C2=Nn3c(nnc3-c3cc(-c4ccccc4)n(C)n3)SC2C)cc1 (stereo not shown) [compound 10542],6.5 µM,15.1 µM,
CC1Sc2nnc(-c3cc(-c4ccccc4)n[nH]3)n2N=C1c1ccc(C(F)(F)F)cc1 (stereo not shown) [compound 10478],35.9 µM,50 µM,
CC1Sc2nnc(-c3cc(-c4ccc(F)cc4)n[nH]3)n2N=C1c1ccccc1 (racemic) [compound 10135],3.8 µM,33.4 µM,
c1ccc(-c2cc(-c3nnc4n3N=C(c3ccncc3)CS4)[nH]n2)cc1 [9b],,,IC50 (STAT1; Table 4): > 50 µM; IC50 (STAT3; [1]): > 50 µM
C1=Nn2c(nnc2-c2cc(-c3ccccc3)n[nH]2)SC1 [11b],,,IC50 (STAT1; Table 4): > 50 µM; IC50 (STAT3; [1]): > 50 µM
COc1ccc(C2=Nn3c(nnc3-c3[nH]nc4c3CSC4)SC2C)cc1 (stereo not shown) [compound 10435],33.9 µM,0.63 µM,
CC1Sc2nnc(-c3[nH]nc4c3CCC4)n2N=C1c1ccccc1 (racemic) [compound 10173],18.2 µM,41.8 µM,
CC1Sc2nnc(-c3nn(C)c4c3CCC4)n2N=C1c1ccc(Cl)c(Cl)c1 (stereo not shown) [compound 10469],7.8 µM,3.1 µM,
COc1ccc(C2=Nn3c(nnc3-c3cc(-c4ccccc4)nn3C)SC2C)cc1 (stereo not shown) [compound 10540],4.7 µM,1.3 µM,
COC(=O)CC1Sc2nnc(-c3cc(-c4ccccc4)n[nH]3)n2N=C1c1ccc(OC)cc1 (stereo not shown) [compound 10427],11.6 µM,34.5 µM,
Clc1cccc(C2=Nn3c(nnc3-c3cc(-c4ccccc4)n[nH]3)SC2)c1 [6b],,,IC50 (STAT1; Table 4): 45.9 µM; IC50 (STAT3; [1]): 5.6 µM
COc1ccc(C2=Nn3c(nnc3-c3cc(-c4ccccc4)n(C(C)=O)n3)SC2C)cc1 (stereo not shown) [compound 10479],7.9 µM,38.1 µM,
COc1ccc(C2=Nn3c(nnc3C(C)C)SC2C)cc1 (stereo not shown) [UPCDC10332],,,IC50 (Cal33 cells; [7]): 0.16 µM; IC50 (STAT3; [8]): 14.3 µM
Clc1ccc(C2=Nn3c(nnc3-c3[nH]nc4c3CCC4)SC2Cc2ccccc2)cc1Cl (stereo not shown) [compound 10308],7.5 µM,3.3 µM,IC50 (STAT3; [9]): < 10 µM

SMILES,IC50 (STAT3; [5]),IC50 (Cal33 cells; [6]),other results
COCCC1Sc2nnc(-c3cc(-c4ccc(F)cc4)n[nH]3)n2N=C1c1ccc(OC)cc1 (stereo not shown) [compound 10374],8.5 µM,14.4 µM,
CC1=Nn2c(nnc2-c2cc(-c3ccccc3)n[nH]2)SC1 [12b],,,IC50 (STAT1; Table 4): > 50 µM; IC50 (STAT3; [1]): > 50 µM
COc1ccc(C2=Nn3c(nnc3-c3cc(-c4ccc(F)cc4)n[nH]3)SC2C)cc1 (racemic) [compound 10204],4.2 µM,33 µM,
CC1Sc2nnc(-c3nn(Cc4ccc(OC(F)(F)F)cc4)c4c3CCC4)n2N=C1c1ccc(Cl)c(Cl)c1 (stereo not shown) [compound 10477],31 µM,34.3 µM,
Clc1ccc(C2=Nn3c(nnc3-c3[nH]nc4c3CCC4)SC2)s1 [10a],,,IC50 (STAT1; Table 4): > 50 µM
COc1ccc(C2=Nn3c(nnc3-c3[nH]nc4c3CCC4)SC2CC(C)C)cc1 (stereo not shown) [UPCDC10305],5.1 µM,,IC50 (Cal33 cells; [7]): 0.47 µM; IC50 (Cal33 cells; [4]): 0.47 µM; IC50 (STAT3; [9]): < 10 µM; IC50 (STAT3; [8]): 5.14 µM
Clc1ccc(C2=Nn3c(nnc3-c3cc(-c4ccccc4)n[nH]3)SC2)cc1Cl [1b],,,IC50 (STAT1; Table 4): > 50 µM
C1=Nn2c(nnc2-c2[nH]nc3c2CCC3)SC1 [11a],,,IC50 (STAT1; Table 4): > 50 µM; IC50 (STAT3; [1]): > 50 µM
CC1Sc2nnc(-c3nn(Cc4ccccc4)c4c3CCC4)n2N=C1c1ccc(Cl)c(Cl)c1 (stereo not shown) [compound 10491],5.9 µM,17.4 µM,
CC(C)C1Sc2nnc(-c3cc(-c4ccccc4)n(C)n3)n2N=C1c1ccc(Cl)c(Cl)c1 (stereo not shown) [compound 10556],27.3 µM,48.6 µM,
CCN(CC)c1ccc(C2=Nn3c(nnc3-c3cc(-c4ccccc4)nn3C)SC2C)cc1 (stereo not shown) [compound 10559],5.7 µM,27.5 µM,
COc1ccc(C2=Nn3c(nnc3-c3nn(C(=O)OC(C)(C)C)c4c3CCC4)SC2C)cc1 (stereo not shown) [compound 10422],34.7 µM,0.38 µM,
COc1ccc(C2=Nn3c(nnc3-c3[nH]nc4c3CCC4)SC2C(C)C)cc1 (stereo not shown) [Cmpd 26],,,GI50 (Cal33 cells): 400 ± 100 nM; IC50 (STAT1; [2]): > 50 µM
CC1(C)Sc2nnc(-c3cc(-c4ccccc4)n[nH]3)n2N=C1c1ccccc1 [compound 10264],45.6 µM,50 µM,
CC1Sc2nnc(-c3[nH]nc4c3CCC4)n2N=C1c1ccc(Cl)cc1 (stereo not shown) [UPCDC10281],7.21 µM,,IC50 (Cal33 cells; [7]): 0.44 µM; IC50 (Cal33 cells; [4]): 0.44 µM; IC50 (STAT3; [8]): 7.21 µM
COc1ccc(C2=Nn3c(nnc3-c3cc(-c4ccccc4)n[nH]3)SC2C(C)C)cc1 (stereo not shown) [compound 10319],21.6 µM,20 µM,
CC1(C)Sc2nnc(-c3cc(-c4ccc(Cl)cc4)n[nH]3)n2N=C1c1ccccc1 [compound 10268],38.2 µM,50 µM,
COc1ccc(C2=Nn3c(nnc3-c3n[nH]c(-c4ccc(Cl)cc4)c3C)SC2C)cc1 (stereo not shown) [compound 10547],7.3 µM,1.3 µM,
COc1ccc(C2=Nn3c(nnc3-c3[nH]nc4c3CCCC4)SC2)cc1 [UPCDC10073],,,IC50 (Cal33 cells; [7]): 0.2 µM; IC50 (STAT3; [8]): 17 µM
CC1(C)Sc2nnc(-c3[nH]nc4c3CCC4)n2N=C1c1ccc(Cl)c(Cl)c1 [compound 10283],18.6 µM,50 µM,
c1ccc(-c2cc(-c3nnc4n3N=C(C3CCCCC3)CS4)[nH]n2)cc1 [13b],,,IC50 (STAT1; Table 4): > 50 µM; IC50 (STAT3; [1]): > 50 µM
Clc1ccc(C2=Nn3c(nnc3-c3[nH]nc4c3CCC4)SC2)cc1 [2a],,,IC50 (STAT1; Table 4): > 50 µM
